Results from patent US7135548B2, “Modified α-MSH peptides and derivatives thereof” (Zengen, Inc., priority 2002, dated 2006).
“Also recorded” adds a separate entry of the source. Square brackets hold non-standard residues; d marks the D form. Ends that are not written are not given here. dNal = D-naphthylalanine (D-Nal)

Tests used:
Candida albicans [1] = assay: Inhibition of Candida albicans colony formation (viability estimated from colonies formed); assay type: cell-based; settings: for % Inhib. (inhibitory effect on Candida Albicans): clinical isolates, 1×10^6/ml in HBSS, two hours at 37° C. with peptide, colonies counted after 48 hours, peptide concentration for the table not given (range tested 10^−15 to 10^−4 M); for antimicrobial activity toward Candida albicans (result in words): Table 1 / FIG. 1
Description: Clinical isolates of C. albicans were also obtained from the collection of the Department of Microbiology, Ospedale Maggiore di Milano. Cultures of C. albicans were maintained on Sabouraud's agar slants and periodically transferred to Sabouraud's agar plates and incubated for 48 hours at 28° C. To prepare stationary growth-phase yeast, a colony may be taken from the agar plate, transferred into 30 ml of Sabouraud-dextrose broth, and incubated for 72 hours at 32° C. Cells were centrifuged at 1000×g for ten minutes, and the pellet may be washed twice with distilled water. Cells were counted and suspended in Hank's balanced salt solution (“HBSS”) to the desired concentration. Viability, determined by exclusion of 0.01% methylene blue, remained greater than 98%.
At 1×10^6/ml in HBSS, these fungi were incubated in the presence or absence of modified α-MSH peptides at concentrations ranging from 10^−15 to 10^−4 M for two hours at 37° C. Cells were then washed in cold distilled water and diluted with HBSS to a concentration of 100 organisms/ml. One-milliliter aliquots were then dispensed on blood agar plates and incubated for 48 hours at 37° C. The organism's viability may be estimated from the number of colonies formed.

Candida albicans [2] = settings: comparison value, see U.S. patent application Ser. No. 09/535,066; cited from earlier work

Substance	% Inhib. (inhibitory effect on Candida Albicans) (Candida albicans [1]) [%]	antimicrobial activity toward Candida albicans (result in words) (Candida albicans [1])	inhibition of C. albicans colonies by naturally occurring α-MSH (Candida albicans [2])
HFRWGAPV [SEQ. ID. NO. 18]	26.2	–	–
HFRWGKAV [SEQ. ID. NO. 19]	12.8	–	–
HFRWGKDV [SEQ. ID. NO. 38]	5.9	–	–
HFRWGKEV [SEQ. ID. NO. 42]	11.2	–	–
HFRWGKFV [SEQ. ID. NO. 32]	90.0	–	–
HFRWGKGV [SEQ. ID. NO. 28]	41.8	–	–
HFRWGKKV [SEQ. ID. NO. 44]	41.0	–	–
HFRWGKPA [SEQ. ID. NO. 20]	68.4	–	–
HFRWGKPL [SEQ. ID. NO. 24]	86.6	–	–
HFRWGKSV [SEQ. ID. NO. 30]	32.3	No substantial modification in activity	–
HFR[dW]GKPV [SEQ. ID. NO. 23]	81.9	–	–
H[dF]RWGK[dF]V [SEQ. ID. NO. 35]	82.0	–	–
His-DNal-Arg-Trp-Gly-Lys-Ala-Val (H[dNal]RWGKAV-OH) [SEQ. ID. NO. 26]	28.0	–	–
His-DNal-Arg-Trp-Gly-Lys-Asp-Val (H[dNal]RWGKDV-OH) [SEQ. ID. NO. 41]	16.8	decreased activity	–
His-DNal-Arg-Trp-Gly-Lys-DAla-Val (H[dNal]RWGK[dA]V-OH) [SEQ. ID. NO. 27]	69.2	–	–
His-DNal-Arg-Trp-Gly-Lys-DPhe-Val (H[dNal]RWGK[dF]V-OH) [SEQ. ID. NO. 37]	57.6	potent antimicrobial activity	–
His-DNal-Arg-Trp-Gly-Lys-Glu-Val (H[dNal]RWGKEV-OH) [SEQ. ID. NO. 43]	32.3	decreased activity	–
His-DNal-Arg-Trp-Gly-Lys-Gly-Val (H[dNal]RWGKGV-OH) [SEQ. ID. NO. 29]	36.2	–	–
His-DNal-Arg-Trp-Gly-Lys-Lys-Val (H[dNal]RWGKKV-OH) [SEQ. ID. NO. 45]	85.4	–	–
His-DNal-Arg-Trp-Gly-Lys-Phe-Val (H[dNal]RWGKFV-OH) [SEQ. ID. NO. 36]	99.7	potent antimicrobial activity; also recorded: remarkable anticandidacidal activity	–
His-DNal-Arg-Trp-Gly-Lys-Pro-Val (H[dNal]RWGKPV-OH) [SEQ. ID. NO. 22]	95.3	increased activity	–
His-DNal-Arg-Trp-Gly-Lys-Ser-Val (H[dNal]RWGKSV-OH) [SEQ. ID. NO. 31]	73.9	No substantial modification in activity	–
His-DPhe-Arg-Trp-Gly-Lys-Asp-Val (H[dF]RWGKDV-OH; N-terminus assumed; SMILES CC(C)[C@H](NC(=O)[C@H](CC(=O)O)NC(=O)[C@H](CCCCN)NC(=O)CNC(=O)[C@H](Cc1c[nH]c2ccccc12)NC(=O)[C@H](CCCNC(=N)N)NC(=O)[C@@H](Cc1ccccc1)NC(=O)[C@@H](N)Cc1c[nH]cn1)C(=O)O) [SEQ. ID. NO. 40]	3.7	–	–
His-DPhe-Arg-Trp-Gly-Lys-Phe-Val (H[dF]RWGKFV-OH; N-terminus assumed; SMILES CC(C)[C@H](NC(=O)[C@H](Cc1ccccc1)NC(=O)[C@H](CCCCN)NC(=O)CNC(=O)[C@H](Cc1c[nH]c2ccccc12)NC(=O)[C@H](CCCNC(=N)N)NC(=O)[C@@H](Cc1ccccc1)NC(=O)[C@@H](N)Cc1c[nH]cn1)C(=O)O) [SEQ. ID. NO. 34]	89.6	–	–
His-DPhe-Arg-Trp-Gly-Lys-Pro-Val (H[dF]RWGKPV-OH; N-terminus assumed; SMILES CC(C)[C@H](NC(=O)[C@@H]1CCCN1C(=O)[C@H](CCCCN)NC(=O)CNC(=O)[C@H](Cc1c[nH]c2ccccc12)NC(=O)[C@H](CCCNC(=N)N)NC(=O)[C@@H](Cc1ccccc1)NC(=O)[C@@H](N)Cc1c[nH]cn1)C(=O)O) [SEQ. ID. NO. 21]	79.4	–	–
His-Phe-Arg-Trp-Gly-Lys-DAla-Val (HFRWGK[dA]V-OH; N-terminus assumed; SMILES CC(C)[C@H](NC(=O)[C@@H](C)NC(=O)[C@H](CCCCN)NC(=O)CNC(=O)[C@H](Cc1c[nH]c2ccccc12)NC(=O)[C@H](CCCNC(=N)N)NC(=O)[C@H](Cc1ccccc1)NC(=O)[C@@H](N)Cc1c[nH]cn1)C(=O)O) [SEQ. ID. NO. 25]	43.7	–	–
His-Phe-Arg-Trp-Gly-Lys-DAsp-Val (HFRWGK[dD]V-OH; N-terminus assumed; SMILES CC(C)[C@H](NC(=O)[C@@H](CC(=O)O)NC(=O)[C@H](CCCCN)NC(=O)CNC(=O)[C@H](Cc1c[nH]c2ccccc12)NC(=O)[C@H](CCCNC(=N)N)NC(=O)[C@H](Cc1ccccc1)NC(=O)[C@@H](N)Cc1c[nH]cn1)C(=O)O) [SEQ. ID. NO. 39]	15.7	–	–
His-Phe-Arg-Trp-Gly-Lys-DPhe-Val (HFRWGK[dF]V-OH; N-terminus assumed; SMILES CC(C)[C@H](NC(=O)[C@@H](Cc1ccccc1)NC(=O)[C@H](CCCCN)NC(=O)CNC(=O)[C@H](Cc1c[nH]c2ccccc12)NC(=O)[C@H](CCCNC(=N)N)NC(=O)[C@H](Cc1ccccc1)NC(=O)[C@@H](N)Cc1c[nH]cn1)C(=O)O) [SEQ. ID. NO. 33]	97.5	–	–
His-Phe-Arg-Trp-Gly-Lys-Pro-DVal (HFRWGKP[dV]-OH; N-terminus assumed; SMILES CC(C)[C@@H](NC(=O)[C@@H]1CCCN1C(=O)[C@H](CCCCN)NC(=O)CNC(=O)[C@H](Cc1c[nH]c2ccccc12)NC(=O)[C@H](CCCNC(=N)N)NC(=O)[C@H](Cc1ccccc1)NC(=O)[C@@H](N)Cc1c[nH]cn1)C(=O)O) [SEQ. ID. NO. 17]	82.5	–	–
SYSMEHFRWGKPV [α-MSH, naturally occurring 13-amino acid peptide, α-melanocyte-stimulating hormone]	–	–	less than 80%
